Results reported in article PMC8178997 (Chemical Science, 2020).
Where no end group is shown, it is not given here.

Target: T1, NCBD (the [2066–2112]-fragment of CBP) (Mus musculus, UniProt P45481)
T1 sequence (P45481 2066-2112): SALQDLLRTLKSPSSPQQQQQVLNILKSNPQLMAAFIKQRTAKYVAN
Assay: Isothermal titration calorimetry
Assay type: binding

“EGQMDERALLEQLHQLLSNTDATGLEEIDRALGIPELVNQGQALEPK [[S1043M;D1050E;T1054Q]]” showed a Kd of 188 nM.
